Results from ChEMBL document CHEMBL3763108, “Application of PEG-400 as a green biodegradable polymeric medium for the catalyst-free synthesis of spiro-dihydropyridines and their use as acetyl and butyrylcholinesterase inhibitors” (Bioorg Med Chem, 2016).
pIC50: −log10 of the molar value.

How the values were obtained:
[1] = target: Cholinesterase (Homo sapiens, UniProt P06276); assay: Inhibition of BChE (unknown origin) using acetylthiocholine as substrate assessed as reduction of DTNB to TNB preincubated for 20 mins followed by addition of substrate by Ellman's kinetic method
Cholinesterase, sequence (P06276 whole entry): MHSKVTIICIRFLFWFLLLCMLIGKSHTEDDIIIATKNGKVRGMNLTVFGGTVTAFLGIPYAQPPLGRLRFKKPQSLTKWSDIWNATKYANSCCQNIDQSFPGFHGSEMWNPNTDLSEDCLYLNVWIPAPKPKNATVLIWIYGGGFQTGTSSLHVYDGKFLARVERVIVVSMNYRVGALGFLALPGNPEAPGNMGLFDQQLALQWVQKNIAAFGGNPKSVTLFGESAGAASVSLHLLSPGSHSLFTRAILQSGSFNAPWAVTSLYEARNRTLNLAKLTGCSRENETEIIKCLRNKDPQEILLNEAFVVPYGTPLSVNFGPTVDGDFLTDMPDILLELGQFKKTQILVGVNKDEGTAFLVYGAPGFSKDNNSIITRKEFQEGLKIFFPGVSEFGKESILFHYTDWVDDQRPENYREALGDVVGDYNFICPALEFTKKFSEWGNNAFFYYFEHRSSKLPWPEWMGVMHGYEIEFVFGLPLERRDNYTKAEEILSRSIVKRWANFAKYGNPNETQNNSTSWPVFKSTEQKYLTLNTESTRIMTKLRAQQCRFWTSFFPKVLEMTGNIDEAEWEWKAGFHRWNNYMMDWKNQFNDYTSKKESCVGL

[2] = target: T1, Cholinesterases; ACHE & BCHE (Homo sapiens) (UniProt P06276+P22303); assay: Selectivity ratio of IC50 for AChE (unknown origin) to IC50 for BChE (unknown origin) by Ellman's kinetic method
T1 sequence (P06276 whole entry, looked up): as the sequence (P06276 whole entry) above
T1 sequence (P22303 whole entry, looked up): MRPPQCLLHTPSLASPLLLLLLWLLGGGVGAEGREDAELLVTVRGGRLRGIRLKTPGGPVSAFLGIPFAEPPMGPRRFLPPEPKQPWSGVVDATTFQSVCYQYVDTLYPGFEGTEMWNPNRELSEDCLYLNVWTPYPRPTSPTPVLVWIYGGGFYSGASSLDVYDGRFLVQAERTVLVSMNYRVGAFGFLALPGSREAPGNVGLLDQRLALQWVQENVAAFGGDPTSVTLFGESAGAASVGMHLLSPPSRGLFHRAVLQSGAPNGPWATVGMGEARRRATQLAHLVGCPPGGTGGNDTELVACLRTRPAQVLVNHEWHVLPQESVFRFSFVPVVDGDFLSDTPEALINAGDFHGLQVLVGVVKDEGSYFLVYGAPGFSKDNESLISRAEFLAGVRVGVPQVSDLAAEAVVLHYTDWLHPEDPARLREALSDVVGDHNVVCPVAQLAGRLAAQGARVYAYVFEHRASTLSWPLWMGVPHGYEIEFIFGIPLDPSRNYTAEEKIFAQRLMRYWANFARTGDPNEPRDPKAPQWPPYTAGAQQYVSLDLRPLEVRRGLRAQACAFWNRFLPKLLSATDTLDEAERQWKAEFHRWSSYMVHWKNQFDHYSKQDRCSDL

[3] = target: T1, Cholinesterases; ACHE & BCHE (Homo sapiens); assay: Selectivity ratio of IC50 for BChE (unknown origin) to IC50 for AChE (unknown origin) by Ellman's kinetic method
[4] = target: Acetylcholinesterase (Homo sapiens, UniProt P22303); assay: Inhibition of AChE (unknown origin) using acetylthiocholine as substrate assessed as reduction of DTNB to TNB preincubated for 20 mins followed by addition of substrate by Ellman's kinetic method
Acetylcholinesterase, sequence (P22303 whole entry): as the sequence (P22303 whole entry, looked up) above

SMILES	pIC50 [1]	Ratio IC50 [2]	Ratio IC50 [3]	pIC50 [4]
N#CC1=C(N)N(Cc2ccccc2)C(NCc2ccccc2)=C([N+](=O)[O-])C12C(=O)c1ccc(Br)c3c(Br)ccc2c13 (stereo not drawn)	4.58	0.235	4.26	5.20
Cc1ccc2c(c1)C1(C(=O)N2)C(C#N)=C(N)N2CC(C)(C)CNC2=C1[N+](=O)[O-] (stereo not drawn)	4.83	0.095	10.6	5.86
N#CC1=C(N)N(Cc2ccccc2)C(NCc2ccccc2)=C([N+](=O)[O-])C12C(=O)Nc1ccccc12 (stereo not drawn)	4.82	0.259	3.86	5.40
CC1(C)CNC2=C([N+](=O)[O-])C3(C(=O)Nc4ccc([N+](=O)[O-])cc43)C(C#N)=C(N)N2C1 (stereo not drawn)	4.93	0.13	7.71	5.81
N#CC1=C(N)N2CCCNC2=C([N+](=O)[O-])C12C(=O)Nc1ccc([N+](=O)[O-])cc12 (stereo not drawn)	4.91	0.092	10.8	5.94
N#CC1=C(N)N2CCCNC2=C([N+](=O)[O-])C12C(=O)Nc1ccccc12 (stereo not drawn)	5.05	0.114	8.76	5.99
Cc1ccc2c(c1)C1(C(=O)N2)C(C#N)=C(N)N(Cc2ccccc2)C(NCc2ccccc2)=C1[N+](=O)[O-] (stereo not drawn)	4.87	0.275	3.64	5.43
N#CC1=C(N)N2CCNC2=C([N+](=O)[O-])C12C(=O)Nc1ccccc12 (stereo not drawn)	4.87	0.36	2.77	5.31
N#CC1=C(N)N2CCCNC2=C([N+](=O)[O-])C12C(=O)c1ccc(Br)c3c(Br)ccc2c13 (stereo not drawn)	4.61	0.272	3.68	5.17
CC1(C)CNC2=C([N+](=O)[O-])C3(C(=O)c4cccc5cccc3c45)C(C#N)=C(N)N2C1 (stereo not drawn)	4.59	0.303	3.3	5.11
N#CC1=C(N)N(Cc2ccccc2)C(NCc2ccccc2)=C([N+](=O)[O-])C12C(=O)c1cccc3cccc2c13 (stereo not drawn)	4.62	0.25	4	5.22
N#CC1=C(N)N2CCNC2=C([N+](=O)[O-])C12C(=O)c1cccc3cccc2c13 (stereo not drawn)	4.62	0.298	3.36	5.15
N#CC1=C(N)N2CCNC2=C([N+](=O)[O-])C12C(=O)c1ccc(Br)c3c(Br)ccc2c13 (stereo not drawn)	4.58	0.245	4.09	5.20
CC1(C)CNC2=C([N+](=O)[O-])C3(C(=O)Nc4ccc(F)cc43)C(C#N)=C(N)N2C1 (stereo not drawn)	4.80	0.067	14.9	5.97
COc1ccc2c3c1O[C@H]1CC(O)CC[C@@]31CCN(C)C2 (stereo partly drawn)	–	0.196	5.12	–
N#CC1=C(N)N2CCCNC2=C([N+](=O)[O-])C12C(=O)c1cccc3cccc2c13 (stereo not drawn)	4.58	0.252	3.96	5.18
N#CC1=C(N)N2CCNC2=C([N+](=O)[O-])C12C(=O)Nc1ccc([N+](=O)[O-])cc12 (stereo not drawn)	4.85	0.23	4.34	5.49
Cc1ccc2c(c1)C1(C(=O)N2)C(C#N)=C(N)N2CCCNC2=C1[N+](=O)[O-] (stereo not drawn)	4.91	0.076	13.1	6.03
Cc1ccc2c(c1)C1(C(=O)N2)C(C#N)=C(N)N2CCNC2=C1[N+](=O)[O-] (stereo not drawn)	4.79	0.238	4.21	5.41
N#CC1=C(N)N2CCNC2=C([N+](=O)[O-])C12C(=O)Nc1ccc(F)cc12 (stereo not drawn)	4.77	0.195	5.12	5.48
CC1(C)CNC2=C([N+](=O)[O-])C3(C(=O)c4ccc(Br)c5c(Br)ccc3c45)C(C#N)=C(N)N2C1 (stereo not drawn)	4.62	0.251	3.98	5.22
N#CC1=C(N)N(Cc2ccccc2)C(NCc2ccccc2)=C([N+](=O)[O-])C12C(=O)Nc1ccc(F)cc12 (stereo not drawn)	4.82	0.235	4.26	5.45
N#CC1=C(N)N(Cc2ccccc2)C(NCc2ccccc2)=C([N+](=O)[O-])C12C(=O)Nc1ccc([N+](=O)[O-])cc12 (stereo not drawn)	4.83	0.225	4.44	5.47
CC1(C)CNC2=C([N+](=O)[O-])C3(C(=O)Nc4ccccc43)C(C#N)=C(N)N2C1 (stereo not drawn)	4.98	0.12	8.34	5.90
N#CC1=C(N)N2CCCNC2=C([N+](=O)[O-])C12C(=O)Nc1ccc(F)cc12 (stereo not drawn)	4.83	0.029	35	6.38
